Entries after “also recorded” stand apart in the source; their conditions may differ.
Experiments:
α1A-AR [1] = target: T1, α1A-AR (Homo sapiens, UniProt P35348); test: Total inositol phosphate assay at α1A-AR; assay type: cell-based; parameters: expressed in transfected cells; host or cells: Rat-1 fibroblast cells
T1 sequence (P35348 1-466): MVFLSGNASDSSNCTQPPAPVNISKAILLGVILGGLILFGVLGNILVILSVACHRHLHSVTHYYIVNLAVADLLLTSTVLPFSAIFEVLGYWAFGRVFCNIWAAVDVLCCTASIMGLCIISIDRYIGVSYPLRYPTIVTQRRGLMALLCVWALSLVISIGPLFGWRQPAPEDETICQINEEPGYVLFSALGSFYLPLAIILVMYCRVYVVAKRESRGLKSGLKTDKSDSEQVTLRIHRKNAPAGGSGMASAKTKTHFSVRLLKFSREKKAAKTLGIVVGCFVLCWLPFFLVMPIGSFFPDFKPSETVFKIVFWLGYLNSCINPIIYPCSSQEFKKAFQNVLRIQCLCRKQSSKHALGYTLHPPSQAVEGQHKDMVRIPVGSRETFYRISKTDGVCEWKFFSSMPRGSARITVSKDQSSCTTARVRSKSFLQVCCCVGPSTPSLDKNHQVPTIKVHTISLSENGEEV
Method: Total Inositol Phosphate assay: Cells expressing a single α1-adrenergic receptor subtypes are washed and re-plated into 6-well plates containing DMEM media at approximately 5×10^5 cells/well. Cells are allowed to rest till the next day in a CO2 incubator at 37° C. The cells are washed twice with DMEM (no serum), then 2 ml of DMEM is added to each well. 2 ul of ^3H-inositol (at 1 uCi/mL, Perkin-Elmer NET 114 005MC) and 10 mM LiCl is added to each well. The cells are incubated for 1 hour at 37° C. in a CO2 incubator. […] The cells are incubated again for 1 hour at 37° C. in a CO2 incubator. The media is aspirated and 1 mL of ice-cold 0.4M perchloric acid is added. The cells are scraped, transferred to a vial, then 1 mL 0.72M KOH/0.6M KHCO3 is added, the tube vortexed and the contents centrifuged at 2000 rpm for 10 mins. The supernatant is removed and applied to BioRad polyprep columns packed with 1 mL of AG1-X8 resin (BioRad AG1-X8 resin 100-200 mesh #140-1444) in 0.1M formic acid in a holding tray which is over a plastic catch tray. The supernatant is allowed to naturally drip through the column then washed with 8 ml of 0.1M formic acid (2 ml at a time). The columns are transferred via the holding tray to a box of 20 ml scintillation vials so that the columns drip directly into the vials. Total inositol phosphates are eluted off the column with 2 ml of 0.1M formic acid/1M ammonium formate. The columns are eluted a second time into a new scintillation vial with another 2 ml of 0.1M formic acid/1M ammonium formate. 18 ml of Ecoscint A is added to each scintillation vial and vortexed. The vials are allowed to dark adapt overnight at room temperature to reduce autofluorescence. The vials are counted in a scintillation counter on the tritium channel and the cpms from the first and second fractions eluted off the columns are added together.

α1A-AR [2] = target: T1, α1A-AR; test: Rapid cAMP screening assay for PAM effects (norepinephrine constant at Emax); assay type: cell-based, human and mouse; settings: norepinephrine constant at 10^−4M; range over cell lines (fibroblasts, neuroblastoma, cardiomyocytes)
Method: cAMP assay: Cells expressing a single α1-adrenergic receptor subtype are washed and re-plated into 24-well plates in DMEM media without serum at approximately 2.4×10^4 cells/well. Cells are allowed to rest till the next day in a CO2 incubator at 37° C. The cells are washed twice with DMEM (no serum), then 1 ml of DMEM is added to each well. Cells are pre-incubated for 45 mins-1 hour at 37° C. in a CO2 incubator with 10 uM propranolol, followed by 100 uM IBMX for 30 minutes. Final DMSO concentration is at 0.05%. Norepinephrine or epinephrine is added in a dose response (1 dose per well) in addition to one of the Compounds 1-10 at one concentration (i.e. 10^−5M). Cells are incubated for another 30 mins at 37° C. in a CO2 incubator. The reaction is concluded by aspirating the media and adding 0.1M HCL. The mixture is incubated for 20 mins at room temperature. The cells are scraped and suspended until homogenous. The mixture is centrifuged at 1000 g for 10 mins and the supernatant assayed the same day according to a manufacturer's cAMP kit (Cayman Select Cyclic AMP EIA kit #501040).
In this assay, the concentration of norepinephrine is held constant at its Emax (10^−4M) (FIG. 10, red line). Compound 3 is then added in a dose-response (FIG. 10, blue line). Any signal above the red line is potentiation. […]

[3] = Body weight of 3×TG AD mice; assay type: in vivo, mouse; settings: female 3×TG mice
Method: AD mice were first randomized and sorted into control or treatment groups. […] 14 AD mice from each treatment group received Compound 3 in the drinking water (2.611 mg/kg/bw) to deliver a daily dose near the peak potentiation of the cAMP response in the brain at 10^−8M based upon the PAM assay and pharmacokinetics. This was achieved by adding Compound 3 to the drinking water at 32 uM, assuming the mice drink 6 ml/day, with only 10% of bioavailable drug reaching the brain. The drug was administered in the drinking water for 10 months, starting at age 2 months, then subjected to either different cognitive behavioral tests or electrophysiology at age 12 months to maximize the manifestations of AD symptoms in these mice. Mice are maintained on the drug for the duration of the studies and blinded to the operator.
At 12 months of age mice were subjected to long term potentiation (LTP) (FIG. 25).
It is known that females in the 3×TG AD mouse model have higher penetrance for the disease than males so an increase in body weight may be a general sign of better health. Weight loss and muscle loss are well-known symptoms associated with AD (91-93).

α2-ARs = test: Radioligand binding at α2-ARs
Method: Characterization: Binding affinity. Using AR null stably-transfected cell lines that each express only one of the three individual α1-AR subtypes, compounds are characterized for their selectivity for the α1A-AR in radioligand binding studies. To be sure of no cross-reactivity, binding affinity against the α2-ARs and β-ARs are also measured. Details for such procedures are found generally at references 25-26, 94-98, all of which are herein incorporated by reference.

CC(C)Cc1c(OCC2=NCCN2)cccc1N(C)S(C)(=O)=O [Compound 3, N-[3-(4,5-Dihydro-1H-imidazol-2-ylmethoxy)-2-isobutyl-phenyl]-N-methyl-methanesulfonamide]
effect on epinephrine-mediated inositol phosphate response at the α1A-AR (α1A-AR [1]): no effect | effect on norepinephrine-mediated inositol phosphate response at the α1A-AR (α1A-AR [1]): does not have any effect; also recorded: no effect | stimulation of inositol phosphate / agonist activity by the compound by itself (α1A-AR [1]; compound alone): cannot stimulate | Emax of PAM potentiation (α1A-AR [2]): 35-60 % of the norepinephrine's maximum response | body weight vs untreated [3]: increased body weight; also recorded: retained or gained body weight | interaction with α2-ARs (α2-ARs): does not interact with high affinity
